Experimental findings from ChEMBL document CHEMBL1221220, “Transport and signaling via the amino acid binding site of the yeast Gap1 amino acid transceptor” (Nat Chem Biol, 2009) are described below.

Active and inactive are the calls of the source. The calls are words filed in the database; no cut-off is given here. Non-standard residues stand in square brackets, D forms with d. Residues, ends and D or L forms follow the SMILES beside them. *: point of attachment. βNA = c1ccc2cc(N*)ccc2c1; βAla = NCCC(=O)O

Series [1] concerns the target T1, General amino-acid permease GAP1 (Saccharomyces cerevisiae) (UniProt P19145).
T1 sequence (whole entry): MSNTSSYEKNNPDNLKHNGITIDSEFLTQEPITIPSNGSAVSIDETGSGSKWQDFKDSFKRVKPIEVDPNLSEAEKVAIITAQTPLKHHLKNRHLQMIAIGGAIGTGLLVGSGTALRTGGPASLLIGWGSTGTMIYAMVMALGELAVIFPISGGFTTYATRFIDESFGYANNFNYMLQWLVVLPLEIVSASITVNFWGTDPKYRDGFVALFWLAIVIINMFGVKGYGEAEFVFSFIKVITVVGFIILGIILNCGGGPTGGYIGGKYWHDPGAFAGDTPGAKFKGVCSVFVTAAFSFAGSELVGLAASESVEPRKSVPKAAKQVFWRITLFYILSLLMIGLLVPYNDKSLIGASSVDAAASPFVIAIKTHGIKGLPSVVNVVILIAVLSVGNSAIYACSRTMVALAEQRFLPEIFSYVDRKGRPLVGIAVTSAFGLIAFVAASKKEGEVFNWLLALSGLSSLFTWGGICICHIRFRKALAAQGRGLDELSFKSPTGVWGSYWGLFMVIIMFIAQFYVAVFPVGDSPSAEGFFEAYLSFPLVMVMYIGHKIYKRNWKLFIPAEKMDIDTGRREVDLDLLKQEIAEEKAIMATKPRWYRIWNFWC
The experiment in a line: Noncompetitive inhibition of nitrogen-starved wild type sigma1278b yeast Gap1-mediated amino acid uptake at 5 mM after 60 secs relative to L-citrulline.

The target in series [2] is T1, General amino-acid permease GAP1 (Saccharomyces cerevisiae). Put plainly: Induction of nitrogen-starved wild type sigma1278b yeast Gap1-mediated […] activation at 10 mM.
The target in series [3] is T2, General amino-acid permease GAP1 (Saccharomyces cerevisiae, UniProt P19145).
T2 sequence (P19145 whole entry): T1 sequence (whole entry)
Put plainly: Noncompetitive inhibition of nitrogen-starved wild type sigma1278b Gap1-mediated amino acid transport by Lineweaver-Burke plot analysis.

Series [4] has as its target T1, General amino-acid permease GAP1 (Saccharomyces cerevisiae). Put plainly: Competitive inhibition of nitrogen-starved wild type sigma1278b yeast Gap1-mediated amino acid uptake at 5 mM after 60 secs relative to L-citrulline.
Series [5] has the same target. Put plainly: Induction of nitrogen-starved wild type sigma1278b yeast Gap1-mediated amino acid uptake at 5 mM after 90 mins.
Series [6] shares this target. Put plainly: Induction of nitrogen-starved wild type sigma1278b yeast Gap1-mediated […] activation at 5 mM.
The target is the same in series [7]. Put plainly: Induction of nitrogen-starved wild type sigma1278b yeast Gap1-mediated […] activation at 5 mM in presence of 10 mM MTSEA treated before compound addition.
Series [8] deals with T2, General amino-acid permease GAP1. The experiment in a line: Competitive inhibition of nitrogen-starved wild type sigma1278b yeast Gap1 by Lineweaver-Burke plot analysis.
Series [9] concerns the target T1, General amino-acid permease GAP1 (Saccharomyces cerevisiae). Put plainly: Inhibition of nitrogen-starved wild type sigma1278b yeast Gap1 assessed as reduction of L-citrulline-mediated trehalose activation at 5 to 10 mM.
For series [10] the target is unchanged. The experiment in a line: Inhibition of L-Arg-L-Gly-L-Gly-induced nitrogen-starved wild type sigma1278b yeast Gap1.
The target is the same in series [11]. The following applies: sigma1278b, at 5 mM.
Substrate in series [12]: NC(=O)NCCC[C@H](N)C(=O)O
The experiment in a line: Activity at nitrogen-starved wild type sigma1278b Gap1. The following applies: Saccharomyces cerevisiae.

Consider `CC(C)C[C@H](N)C(=O)N[C@H](CC(C)C)C(=O)O`, for which the inhibition in series [1] is above 30%.

For the molecule `NC(N)=NCCC[C@H](N)C(=O)NCC(=O)O` (H-Arg-Gly-OH), the inhibition in series [1] is above 30%. Turning to `C[C@H](NC(=O)[C@H](Cc1ccccc1)NC(=O)[C@@H](N)CCCNC(=N)N)C(=O)O` (H-Arg-Phe-Ala-OH), in series [1], the inhibition is above 30%.

Regarding `N=C(N)NCCC[C@H](N)C(=O)NCC(=O)NCC(=O)O` (H-Arg-Gly-Gly-OH), the inhibition in series [1] was above 30%. For the molecule `C[C@@H](O)[C@H](N)C(=O)O`, the outcome in series [2] was Active.

Molecule `C[C@H](N)C(=O)NCC(=O)N[C@@H](C)C(=O)O` (H-Ala-Gly-Ala-OH) gave an inhibition in [1] above 30%. Still for that read-out and setting: for `CC(C)C[C@H](NC(=O)CCCCN)C(=O)O` the value was above 30%. With `CC(C)C[C@H](NC(=O)[C@H](C)N)C(=O)O` (H-Ala-Leu-OH), in series [1], the inhibition was above 30%. Regarding `N[C@@H](Cc1ccccc1)C(=O)O`, the result in series [2] was Active.

As to `N[C@@H](Cc1c[nH]c2ccccc12)C(=O)O`, in series [2], the result was inactive.

For `CSCC[C@H](NC(=O)[C@@H](N)CC(C)C)C(N)=O` (H-Leu-Met-NH2), in [2], the outcome was inactive. Besides, affinity in [3] was put at a Ki of 5000 µM. For the same molecule, the inhibition in [1] was above 30%.

In turn, `N[C@@H](CC(=O)O)C(=O)N[C@@H](Cc1ccccc1)C(=O)O` (H-Asp-Phe-OH) displayed an inhibition in series [4] above 30%. `CSCC[C@H](NC(=O)[C@@H](N)CC(C)C)C(=O)O` (H-Leu-Met-OH): the inhibition in series [1] was 15%. For `CC(C)C[C@H](N)C(=O)NCC(=O)O` (H-Leu-Gly-OH), the result in [5] and in [7] was inactive. For the same molecule, the outcome in series [6] was Active. Further, the inhibition in series [4] is above 30%. In series [8], this molecule showed an inhibitory constant (Ki) of 190 µM. As to `N[C@@H](CC(=O)O)C(=O)O`, in series [2], the outcome was Active. `O=C(O)[C@@H]1CCCN1`: the outcome in series [2] was Active.

For the molecule `N[C@@H](Cc1c[nH]cn1)C(=O)O`, the result in [2] was inactive. Still for that read-out and setting: the entry for `N[C@@H](CO)C(=O)O` is “Active”. `CC(N)C(=O)NC(Cc1ccccc1)C(=O)O` (racemic): the inhibition in series [1] was above 30%. Same read-out and setting: the figure for `CC(C)[C@H](NC(=O)CNC(=O)[C@H](C)N)C(=O)O` (H-Ala-Gly-Val-OH) is above 30%. Still for that read-out and setting: for `CC(C)C[C@H](NC(=O)[C@@H](NC(=O)[C@@H](N)CC(C)C)C(C)C)C(=O)O` (H-Leu-Val-Leu-OH) the value was 15%; for `N=C(N)NCCC[C@H](NC(=O)[C@@H](N)CCCNC(=N)N)C(=O)Nc1ccc2ccccc2c1` (H-Arg-Arg-βNA), above 30%. For `N[C@@H](CC(=O)N[C@@H](CCC(=O)O)c1ccccc1)C(=O)O`, the result in [5] was inactive. Further, the inhibition entry in series [9] was “Active”. In addition, the inhibition entry in series [10] is “inactive”. The molecule further had an inhibition constant (Ki) in series [8] of 105 µM. `CC(C)C[C@H](NC(=O)[C@H](CC(C)C)NC(=O)CCN)C(=O)O` (H-[βAla]-Leu-Leu-OH): the inhibition in series [1] is 15%. Regarding `CC(C)C[C@H](NC(=O)[C@@H](N)CC(C)C)C(=O)N[C@@H](C)C(=O)O` (H-Leu-Leu-Ala-OH), in series [1], the inhibition was found to be 15%. `CC(C)C[C@H](NC(=O)[C@H](CC(C)C)NC(=O)[C@@H](N)CC(C)C)C(=O)O` (H-Leu-Leu-Leu-OH): the inhibition in series [1] amounted to 15%. Consider `NCCCC[C@H](N)C(=O)O`, for which, in series [2], the result was inactive. On the same count and under the same terms, the entry for `N[C@@H](CCC(=O)O)C(=O)O` is “Active”. For the molecule `N=C(N)NCCC[C@H](N)C(=O)N[C@@H](Cc1ccccc1)C(=O)N[C@@H](Cc1ccccc1)C(=O)O` (H-Arg-Phe-Phe-OH), the outcome in [2] was Active. For the same molecule, the Ki in series [3] came out at 12000 µM. Further, the inhibition in series [1] was above 30%. For `CC(C)C[C@@H](NC(=O)CNC(=O)CN)C(=O)O`, the inhibition in [11] was below 15%. For the molecule `CC(=O)N[C@@H](CCC(=O)OC(C)(C)C)C(=O)O`, the inhibition in series [11] is below 15%. Still for that read-out and setting: the figure for `O=C(N[C@@H](CO)C(=O)O)OCc1ccccc1` is below 15%. On the same count and under the same terms, for `NC(=O)C(N)Cc1c[nH]c2ccccc12` (racemic) the value was below 15%; for `NCC(=O)NCCC(=O)NCCS(=O)(=O)O`, below 15%.

`CN[C@@H](Cc1cnc[nH]1)C(=O)O` registered an inhibition in series [11] below 15%. On the same count and under the same terms, the figure for `N[C@@H](Cc1cnc[nH]1)C(=O)NCCS(=O)(=O)O` is below 15%; for `CC(C)(C)OC(=O)NCCC[C@H](N)C(=O)O` it is below 15%.

B1: General amino-acid permease GAP1 (Saccharomyces cerevisiae), P19145 (protein)
chain: T1 sequence (whole entry)
With B1, the Michaelis constant (Km) in series [12] amounted to 37 µM.

The inhibition is the relative decrease from the control value, in per cent. The Ki is the dissociation constant of the complex between target and ligand, obtained from inhibition or displacement. Lower therefore signals higher affinity. Usually Km stands for the substrate concentration at which the rate is half of its maximum.
